Experiments:
Type in all cases: in vivo
[1] = test system: western corn rootworm (Diabrotica virgifera virgifera); assay: Western corn rootworm (WCRW) soil test; conditions: soil concentration 0.15 or 0.5 ppm; neonate larvae, mortality six days after infestation
Description: (§1) For the tick, aphids, souther armyworm, tobacco budworm, house fly, Mexican bean beetle, American cockroach, cat flea, souther corn rootworm, western corn rootworm, black cutworm, and southern root-knot nematode, a solution or suspension was prepared by adding the test compound to a solution of dimethylformamide, acetone, emulsifiers which are alkylaryl polyether alcohols organic sulfonates, and water. The result was a 100 or 500 ppm concentration of the test compound.
For the western corn rootworm test, the water-acetone-DMF-emulsifier solution was adjusted for a treatment rate of 0.15 or 0.5 ppm.
Western corn rootworm (WCRW): The 500 ppm test formulation was applied to dry sandy loam soil contained in a glass jar for a soil concentration of 0.15 or 0.5 ppm. As an untreated control, an aliquot of a water-acetone-DMF-emulsifier solution containing no test compound was applied in a similar manner. After incubating covered for 24 hours, the soil was mixed and four germinated corn seedlings were added to the jar. Ten neonate western corn rootworm larvae were placed in the jar. Six days after infestation, mortality was assessed by Berlese funnel extraction.

[2] = test system: cotton aphid (Aphis gossypii); assay: Cotton aphid (CA) foliar spray test; conditions: cotton plants wet to runoff, 100 or 500 ppm; dead aphids counted after three days
Description: as §1
Buckthorn aphid (BA) or cotton aphid (CA): Adult and nymphal stages of buckthorn or cotton aphid were reared on potted dwarf nasturtium or cotton plants, respectively. Plants infested with 100-150 aphids were wet to runoff with the 100 or 500 ppm test compound formulation. As an untreated control, a water-acetone-DMF-emulsifier solution containing no test compound was also applied to runoff to infested plants. The treated plants were stored for one day for buckthorn aphid and three days for cotton aphid, after which the dead aphids were counted.

[3] = test system: southern armyworm (Spodoptera eridania); assay: Southern armyworm (SAW) treated bean leaf test; conditions: bean leaves, 100 or 500 ppm; second instar larvae, five days
Description: as §1
Southern armyworm (SAW), Mexican bean beetle (MBB): Bean leaves were wet to runoff with the 100 or 500 ppm test compound formulation. As an untreated control, a water-acetone-DMF-emulsifier solution containing no test compound was also applied wet to runoff to bean leaves. Five or six randomly selected second instar southern armyworn larvae or Mexican bean bettle larvae were introduced into each plastic container with the dry treated leaves. The container was closed and held for five days. Larvae which were unable to move the length of the body, even upon stimulation by prodding, were considered dead.

[4] = test system: house fly (Musca domestica); assay: House fly (HF) bait test; conditions: sucrose bait, 100 or 250 ppm; adult flies, mortality after 24 hours
Description: as §1
For house fly tests, the water-acetone-DMF-emulsifier solution was adjusted with a 20% by weight aqueous solution of sucrose to provide a final 100 or 250 ppm concentration of the test compound.
House fly (HF): Four to six day old adult house flies were used. The files were immobilized by anesthetizing with carbon dioxide. A bait cup was prepared which contained the 100 or 250 ppm test compound formulation/sucrose solution and one or two absorbent cotton pad(s). As an untreated control, a water-acetone-DMF-emulsifier-sucrose solution containing no test compound was applied in a similar manner. The bait cup was introduced inside the cage prior to admitting 12-25 anesthetized flies. Mortality was assessed after 24 hours.

[5] = test system: southern corn rootworm (Diabrotica undecimpunctata howardi); assay: Southern corn rootworm (SCRW) soil test; conditions: soil concentration 2.5, 5, 6.75 or 10 ppm; mortality eight days after infestation
Description: as §1
For southern corn rootworm and black cutworm tests, the water-acetone-DMF-emulsifier solution was adjusted for a treatment rate of 2.5, 5, 6.75 or 10 ppm.
Southern corn rootworm (SCRW), Black cutworm (BCW): Corn seeds were placed in a glass jar and covered with dry sandy loam soil. The 500 ppm test formulation was applied for a soil concentration of 2.5, 5, 6.75 or 10 ppm. As an untreated control, an aliquot of a water-acetone-DMF-emulsifier solution containing no test compound was applied in a similar manner. After incubating covered for 24 hours, the soil was mixed and inoculated with approximately 25 southern corn rootworm eggs. Following an additional 48 hours, two late second to early third instar black cutworms were placed in the jar with a portion of insect diet. Eight days after infestation, mortality was assessed visually for cutworm and by Berlese funnel extraction for rootworm.

[6] = test system: tobacco budworm (Heliothis virescens); assay: Tobacco budworm (TBW) treated cotton leaf test; conditions: cotton leaves, 100 ppm; second instar larvae, five days
Description: as §1
Tobacco budworm (TBW): Cotton leaves were wet to runoff with the 100 ppm test compound formulation. As an untreated control, a water-acetone-DMF-emulsifier solution containing no test compound was also applied wet to runoff to cotton leaves. Ten randomly selected second instar tobacco budworm larvae were introduced into plastic containers in which moist dental wicks and the dry treated leaves had been placed. The cups were closed and held for five days. Larvae which were unable to move the length of the body, even upon stimulation by prodding, were considered dead.

[7] = test system: American cockroach (Periplaneta americana); assay: American cockroach (ACR) treated food pellet test; conditions: food pellets with 500 ppm formulation; nymphs, contact and feeding mortality 1 and 5 days after infestation
Description: as §1
American cockroach (ACR): Cat food or dog food pellets were added to jars containing 1-2 mls of the 500 ppm test formulation. As an untreated control, an aliquot of a water-acetone-DMF-emulsifier solution containing no test compound was applied in a similar manner. After 48 hours, roach nymphs were added to the jar. Contact and feeding mortally was assessed 1 and 5 days after infestation.

[8] = test system: southern root-knot nematode (Meloidogyne incognita); assay: Southern root-knot nematode (SRKN) soil test; conditions: soil treatment 23 kg/ha; tomato or cotton root galling rated after 2-3 weeks
Description: as §1
For the southern root-knot nematode tests, the water-acetone-DMF-emulsifier solution was adjusted for a treatment rate of 23 kg/ha soil concentration.
Southern root-knot nematode (SRKN): Eggs and second stage juveniles (J2s) of southern root-knot nematodes were obtained from infected roots of reared tomato plants. Pots containing moist soil were treated with the test compound solution for a treatment rate of 23 kg/ha. As an untreated control, an aliquot of a water-acetone-DMF-emulsifier solution containing no test compound was applied in a similar manner. Immediately after treatment, eggs or J2s of southern root-knot nematode were added to the treated soil. For test with cotton, the seeds were placed on top of the soil the day of treatment and inoculation. For the tests with tomato, the seedlings were transplanted in the pot three days after treatment. The pots were kept in the greenhouse for 2-3 weeks. At the termination of the test, roots of the tomato or cotton seedlings were evaluated for galling on a rating scale from 1 to 5 with one equal to severe galling, relative to untreated control, and five to no galling, i.e., complete control.

Row | SMILES | WCRW [1] | CA [2] | SAW [3] | HF [4] | SCRW [5] | TBW [6] | ACR [7] | SRKN [8]
1 | N#Cc1nn(-c2c(Cl)cc(C(F)(F)F)cc2Cl)c(C=O)c1SC(F)(F)F [Compound 2, 3-Cyano-1-(2,6-dichloro-4-trifluoromethylphenyl)-5-formyl-4-trifluoromethylthiopyrazole] | + (active against 1 or more insects described above up to 100% mortality. This activity is indicated by a “+”) |  |  |  |  |  |  | 
2 | COC(OC)c1c(SC(F)(F)F)c(C#N)nn1-c1c(Cl)cc(C(F)(F)F)cc1Cl [Compound 4, 3-Cyano-1-(2,6-dichloro-4-trifluoromethylphenyl)-5-dimethoxymethyl-4-trifluoromethylthiopyrazole] | + (active against 1 or more insects described above up to 100% mortality. This activity is indicated by a “+”) |  |  |  |  |  |  | 
3 | COC(C#N)c1c(SC(F)(F)F)c(C#N)nn1-c1c(Cl)cc(C(F)(F)F)cc1Cl (stereo not shown) [Compound 6, 3-Cyano-5-{(1-cyano-1-methoxy)methyl}-1-(2,6-dichloro-4-trifluoromethylphenyl)-4-trifluoromethylthiopyrazole] | + (active against 1 or more insects described above up to 100% mortality. This activity is indicated by a “+”) | + (active against 1 or more insects described above up to 100% mortality. This activity is indicated by a “+”) | + (active against 1 or more insects described above up to 100% mortality. This activity is indicated by a “+”) | + (active against 1 or more insects described above up to 100% mortality. This activity is indicated by a “+”) | + (active against 1 or more insects described above up to 100% mortality. This activity is indicated by a “+”) |  |  | 
4 | CN(C)N=Cc1c(SC(F)(F)F)c(C#N)nn1-c1c(Cl)cc(C(F)(F)F)cc1Cl [Compound 11, 3-Cyano-1-(2,6-dichloro-4-trifluoromethylphenyl)-5-(N,N-dimethylaminoiminomethylidenyl)-4-trifluoromethylthiopyrazole] | + (active against 1 or more insects described above up to 100% mortality. This activity is indicated by a “+”) |  |  | + (active against 1 or more insects described above up to 100% mortality. This activity is indicated by a “+”) | + (active against 1 or more insects described above up to 100% mortality. This activity is indicated by a “+”) |  |  | 
5 | COC(OC)c1c([S+]([O-])C(F)(F)F)c(C#N)nn1-c1c(Cl)cc(C(F)(F)F)cc1Cl (stereo not shown) [Compound 13, 3-Cyano-1-(2,6-dichloro-4-trifluoromethylphenyl)-5-dimethoxymethyl-4-trifluoromethylsulfinylpyrazole] | + (active against 1 or more insects described above up to 100% mortality. This activity is indicated by a “+”) | + (active against 1 or more insects described above up to 100% mortality. This activity is indicated by a “+”) |  |  |  | + (active against 1 or more insects described above up to 100% mortality. This activity is indicated by a “+”) | + (active against 1 or more insects described above up to 100% mortality. This activity is indicated by a “+”) | + (active against 1 or more insects described above up to 100% mortality. This activity is indicated by a “+”)
6 | COC(OC)c1c(S(=O)(=O)C(F)(F)F)c(C#N)nn1-c1c(Cl)cc(C(F)(F)F)cc1Cl [Compound 15, 3-Cyano-1-(2,6-dichloro-4-trifluoromethlphenyl)-5-dimethoxymethyl-4-trifluoromethylsulfonylpyrazole] | + (active against 1 or more insects described above up to 100% mortality. This activity is indicated by a “+”) | + (active against 1 or more insects described above up to 100% mortality. This activity is indicated by a “+”) | + (active against 1 or more insects described above up to 100% mortality. This activity is indicated by a “+”) | + (active against 1 or more insects described above up to 100% mortality. This activity is indicated by a “+”) | + (active against 1 or more insects described above up to 100% mortality. This activity is indicated by a “+”) |  | + (active against 1 or more insects described above up to 100% mortality. This activity is indicated by a “+”) | + (active against 1 or more insects described above up to 100% mortality. This activity is indicated by a “+”)
7 | COC(C#N)c1c(S(=O)(=O)C(F)(F)F)c(C#N)nn1-c1c(Cl)cc(C(F)(F)F)cc1Cl (stereo not shown) [Compound 16, 3-Cyano-5-{(1-cyano-1-methoxy)methyl}-1-(2,6-dichloro-4-trifluoromethylphenyl)-4-trifluoromethylsulfonylpyrazole] | + (active against 1 or more insects described above up to 100% mortality. This activity is indicated by a “+”) |  | + (active against 1 or more insects described above up to 100% mortality. This activity is indicated by a “+”) | + (active against 1 or more insects described above up to 100% mortality. This activity is indicated by a “+”) | + (active against 1 or more insects described above up to 100% mortality. This activity is indicated by a “+”) | + (active against 1 or more insects described above up to 100% mortality. This activity is indicated by a “+”) | + (active against 1 or more insects described above up to 100% mortality. This activity is indicated by a “+”) | 

From patent publication US6395906B1, “Intermediates to pesticidal 1-arylpyrazoles” (Rhone-Poulenc Inc., priority 1995, dated 2002)
